# Experimental data published in patent US20240115557A1, “INHIBITORS OF RNA-GUIDED NUCLEASES AND USES THEREOF” (The Brigham and Women's Hospital, Inc., priority 2022, published 2024).
# Biological target: T1, SaCas9 (Staphylococcus aureus, UniProt J7RUA5)
# T1 sequence (J7RUA5 1-1053): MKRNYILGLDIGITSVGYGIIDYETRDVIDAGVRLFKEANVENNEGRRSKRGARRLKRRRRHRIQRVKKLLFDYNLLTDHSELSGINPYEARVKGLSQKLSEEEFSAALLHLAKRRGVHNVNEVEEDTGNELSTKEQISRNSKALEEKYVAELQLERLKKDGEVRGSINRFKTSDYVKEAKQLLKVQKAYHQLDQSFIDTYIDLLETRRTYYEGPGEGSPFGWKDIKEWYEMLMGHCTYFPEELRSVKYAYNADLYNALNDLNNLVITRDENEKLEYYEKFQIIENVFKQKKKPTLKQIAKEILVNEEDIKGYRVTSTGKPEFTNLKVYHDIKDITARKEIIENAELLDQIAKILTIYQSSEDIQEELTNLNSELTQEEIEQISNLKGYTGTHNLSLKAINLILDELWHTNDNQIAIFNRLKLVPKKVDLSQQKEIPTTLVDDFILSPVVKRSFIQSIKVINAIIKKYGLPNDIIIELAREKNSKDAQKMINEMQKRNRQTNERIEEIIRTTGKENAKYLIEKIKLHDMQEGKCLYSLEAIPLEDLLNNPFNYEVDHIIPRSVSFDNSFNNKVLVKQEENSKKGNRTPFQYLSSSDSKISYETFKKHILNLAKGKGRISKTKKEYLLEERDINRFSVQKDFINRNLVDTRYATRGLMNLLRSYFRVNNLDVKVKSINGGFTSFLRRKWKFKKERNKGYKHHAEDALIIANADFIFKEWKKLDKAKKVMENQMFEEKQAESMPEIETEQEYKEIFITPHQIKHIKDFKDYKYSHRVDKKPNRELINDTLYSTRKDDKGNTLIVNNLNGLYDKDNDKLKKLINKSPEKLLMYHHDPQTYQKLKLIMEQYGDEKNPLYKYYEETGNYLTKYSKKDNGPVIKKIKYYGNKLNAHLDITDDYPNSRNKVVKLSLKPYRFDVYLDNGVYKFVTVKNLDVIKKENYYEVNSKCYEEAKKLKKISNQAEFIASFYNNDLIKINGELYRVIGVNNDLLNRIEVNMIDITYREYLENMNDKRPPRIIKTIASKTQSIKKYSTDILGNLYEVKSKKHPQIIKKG
# Experiment: Strand displacement assay, SaCas9 primary screen
# Type: biochemical
# Details: for Auto Zscore Rep 1 / Auto Zscore Rep 2 / Normalized Zscore Rep 1 / Normalized Zscore Rep 2: SaCas9 primary screen; for Auto Zscore Rep 1 / Normalized Zscore Rep 1: replicate 1; for Auto Zscore Rep 2 / Normalized Zscore Rep 2: replicate 2; for Normalized Zscore Rep 1 / Normalized Zscore Rep 2: weaker potential hits; for 3 sigma Hit: flag 1 = hit at 3 sigma; for 5 sigma Hit: flag 1 = hit at 5 sigma
# Experimental: An overview of the screening for SaCas9 inhibitors is depicted in FIG. 14. A total of 43,168 Compounds were screened from the ICCB Libraries. Libraries screened for the initial compounds include ChemDiv 7 (34,848 cpds), Enamine 1 (5,280 cpds), ChemDiv1 (1,760 cpds), NIH Clinical Collection (450 cpds), Biomol 4—FDA Approved Library (640 cpds). A hit is determined from the Zscore, with 3-5σ being a weak hit, >5σ being a strong hit. The results of the hits include 193 Weak Hits and 249 Strong Hits. The NIH Clinical Collection 1-2014 was screened for 450 of 450 compounds, with 7 hits—1.5%. The Biomol 4—FDA Approved Library was screened for 640 of 640 compounds, with 8 hits—1.2%. […] Enamine 1 was screened for 5,280 of 6,004 compounds, with 44 hits—0.83%. Libraries are commercially available, with reference numbers utilized for compounds identifying the compound structures used. […]
# Generalization of CAA to other Cas nucleases. Applicants sought to generalize CAA to other CRISPR-associated nucleases, including from Staphylococcus aureus (SaCas9). Given the similarities between SaCas9 and SpCas9 modes of DNA-substrate binding and protein folding,^26, 27 Applicants hypothesized that SaCas9-induced strand displacement could be similarly measured. Indeed, fluorescence quenching correlated with substrate cleavage in the CAA assay with active SaCas9:gRNA and an ACGGGT PAM sequence, which was validated with gel electrophoresis (FIG. 62F,G and FIG. 69F).
# First, Applicants optimized various components and conditions of the strand displacement assay for Cas enzyme activity and generality with different Cas such as SpCas9 (FIG. 62B) or SaCas9 (FIG. 69F) or FnCas12a (FIG. 70A,B). Typically, SpCas9: gRNA (1:1.2 ratio) RNP was pre-formed at 1 μM in Cas9 assay buffer (20 mM Tris-HCl, pH=7.5, 100 mM KCl, 5 mM MgCl2) for 5 min at 4° C. before diluting to 10 nM in Cas9 assay buffer (2× final concentration). 25 μL of the Cas9 2× stock was manually dispensed to a black 384-well plate (Corning 3575) using electronic pipette. Apo SpCas9 (without guide RNA) was used at the same concentration as a control for no activity (mock inhibition). Following this, pre-annealed Alexa-Fluor 647 labeled substrate and quencher were also diluted to 1 nM and 5 nM in Cas9 assay buffer, respectively (2× stock solution). Next, 25 μL of the substrate/quencher solution was added manually to each well of the Cas9-containing 384-well plates using an electronic pipette and was incubated at 37° C. for 2.5 h. Fluorescent signals were read with the microplate reader set to read Alexa-Fluor 647 fluorescence. Assay was performed similarly with SaCas9 and FnCas12a using the respective enzyme, gRNA, substrate, and quencher oligos. Applicants similarly divulged the effect of PAM sequences of dsDNA on its assay specificity using TGG, TGC, AAC PAM containing substrates for SpCas9 (FIG. 62C), and ACGGGT, ACGGTT, TGCCCA PAM substrate for SaCas9 (FIG. 62F) and TTTC, TTGC, AAAG PAM substrates for FnCpf1 (FIG. 63B-C). Applicants also optimized the effective concentration of DS-AF647 and SS-AF647 fluorophores (FIG. 64A), DS-substrate to SpCas9 RNP ratio (FIG. 64B) and substrate to quencher ratio (FIG. 64C) on assay performance. Similarly, Applicants performed a time course experiment to establish the time required for maximum completion of the reaction at various substrate to SpCas9 RNP ratios (FIG. 64D).
SMILES,Auto Zscore Rep 1,Auto Zscore Rep 2,Normalized Zscore Rep 1,Normalized Zscore Rep 2,3 sigma Hit,5 sigma Hit
Cc1cccc(Cn2c(SCC(O)CO)nc3c2c(=O)[nH]c(=O)n3C)c1 (stereo not drawn) [Compound D226-0165],−0.346,−0.1307,0.1224,0.1125,1,
COc1ccc(-c2[nH]nc3nc(-c4ccc(O)c(O)c4)cc(C(=O)O)c23)cc1 [Cpd C202-1892],−1.82,−0.3926,0.4084,0.4043,1,1
c1ccc(CCCNc2nn3nnnc3c3ccccc23)cc1 [Cpd C301-8945],0.8868,0.9986,0.2248,0.1621,1,
COc1ccc2cc3c(N)nn(C(=O)c4ccncc4)c3nc2c1 [Cpd C594-0003],−0.6022,0.6643,0.2515,0.1978,1,
COc1ccc2cc3c(N)nn(C(=O)c4ccc(F)cc4)c3nc2c1 [Cpd C594-0010],0.8616,−0.4814,0.1698,0.2567,1,
Cn1nc(-c2ccc(Cl)cc2)c2cc(C(=O)O)sc21 [Cpd C660-1021],1.316,1.188,0.2339,0.1885,1,1
Cc1nn2c(=O)cc(COc3ccc(C)c(C)c3)nc2s1 [Cpd C679-2752],0.9351,−0.9427,0.5034,0.5292,1,1

# Continued, values first:
Auto Zscore Rep 1,Auto Zscore Rep 2,Normalized Zscore Rep 1,Normalized Zscore Rep 2,3 sigma Hit,5 sigma Hit,SMILES
−0.0443,−0.6268,0.1897,0.2665,1,,Cc1nnc(NC(=O)CSc2ccc3nnc(-c4ccc(F)cc4)n3n2)s1 [Cpd C742-0312]
−0.06844,0.2074,0.342,0.3107,1,1,Cc1nnc(NC(=O)CSc2ccc3nnc(-c4cccc(F)c4)n3n2)s1 [Cpd C742-0431]
0.1661,0.1101,0.2065,0.1929,1,,O=C(c1ccccc1)c1cnc2ccc(F)cc2c1S(=O)(=O)c1ccc(F)cc1 [Cpd C770-0245]
0.429,0.8302,0.3494,0.3285,1,1,COc1cccc(CNCc2cccn2-c2sc(C)c(C)c2C(=O)O)c1 [Cpd C795-1664]
−0.5592,0.1026,0.2655,0.3207,1,1,CCSc1nc2c(c(=O)[nH]1)C(c1ccc(O)c(O)c1)CC(=O)N2 (stereo not drawn) [Cpd D271-0002]
−1.4647,−0.1946,0.1942,0.18,1,1,O=C1CC(c2ccc(O)c(O)c2)c2c(nc(SCc3ccccc3)[nH]c2=O)N1 (stereo not drawn) [Cpd D271-0007]
−0.4729,−0.3637,0.198,0.181,1,1,Cc1ccc(CSc2nc3c(c(=O)[nH]2)C(c2ccc(O)c(O)c2)CC(=O)N3)cc1 (stereo not drawn) [Cpd D271-0008]
−2.7,−0.04169,0.1797,0.2066,1,1,O=C1CC(c2ccc(O)c(O)c2)c2c(nc(SCc3ccc(Cl)cc3)[nH]c2=O)N1 (stereo not drawn) [Cpd D271-0011]
0.2548,0.7649,0.1908,0.1893,1,1,O=C1CC(c2ccc(O)c(O)c2)c2c(nc(SCc3cccc(Cl)c3)[nH]c2=O)N1 (stereo not drawn) [Cpd D271-0012]
